# Test results from ChEMBL document CHEMBL1201862, “PubChem BioAssay data set” (2004).
#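 Exposure lasted 48 hours, with cells grown in 96-well plates and compounds tested at five concentrations. The concentration for 50% growth inhibition is given as GI50.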 The source made the active and inactive calls. No stated cut-off is given here; in the data, active = GI50 up to about 1.1 µM and inactive = higher.
# Columns and labels:
# Experiment in all cases: NCI-60 cell line screen, 48 h
# HL-60 = test system: HL-60
# KM12 = test system: KM12
# SN12C = test system: SN12C
# IGROV-1 = test system: IGROV-1
# UACC-257 = test system: UACC-257
# OVCAR-5 = test system: OVCAR-5
# HCT-15 = test system: HCT-15
# HT-29 = test system: HT-29
# SR = test system: SR
# A498 = test system: A498
# ACHN = test system: ACHN
# HCT-116 = test system: HCT-116
# LOX IMVI = test system: LOX IMVI
# OVCAR-4 = test system: OVCAR-4
# PC-3 = test system: PC-3
# SW-620 = test system: SW-620
# EKVX = test system: EKVX
# A549 = test system: A549
# NCI-H23 = test system: NCI-H23
# BT-549 = test system: BT-549
# K562 = test system: K562
# SK-MEL-28 = test system: SK-MEL-28
# M14 = test system: M14
# Hs-578T = test system: Hs-578T
# SF-539 = test system: SF-539
# DU-145 = test system: DU-145
# MDA-MB-435 = test system: MDA-MB-435
# MDA-MB-231 = test system: MDA-MB-231
# MDA-N = test system: MDA-N
# NCI-H226 = test system: NCI-H226
# COLO 205 = test system: COLO 205
# HOP-92 = test system: HOP-92
# RXF 393 = test system: RXF 393
# 786-0 = test system: 786-0
# NCI-H522 = test system: NCI-H522
# OVCAR-3 = test system: OVCAR-3
# SK-MEL-2 = test system: SK-MEL-2
# SNB-75 = test system: SNB-75
# NCI-H460 = test system: NCI-H460
# T47D = test system: T47D
# CCRF-CEM = test system: CCRF-CEM
# Malme-3M = test system: Malme-3M
# UO-31 = test system: UO-31
# MCF7 = test system: MCF7
# TK-10 = test system: TK-10
# U-251 = test system: U-251
# SK-OV-3 = test system: SK-OV-3
# OVCAR-8 = test system: OVCAR-8
# HOP-62 = test system: HOP-62
# SK-MEL-5 = test system: SK-MEL-5
# MOLT-4 = test system: MOLT-4
# SF-295 = test system: SF-295
# RPMI-8226 = test system: RPMI-8226
# CAKI-1 = test system: CAKI-1
# HCC 2998 = test system: HCC 2998
# SF-268 = test system: SF-268
# NCI/ADR-RES = test system: NCI/ADR-RES
# UACC-62 = test system: UACC-62
# SNB-19 = test system: SNB-19
compound,measurement,setting,value
CC(C)(CN1CCCCC1)C(/C=C/c1ccc(Cl)cc1)=N\NC(=O)N/N=C(/C=C/c1ccc(Cl)cc1)C(C)(C)CN1CCCCC1,GI50,HL-60,2.33 µM (inactive)
same,GI50,KM12,3.24 µM (inactive)
same,GI50,SN12C,3.85 µM (inactive)
same,GI50,IGROV-1,2.98 µM (inactive)
same,GI50,UACC-257,5.05 µM (inactive)
same,GI50,OVCAR-5,3.95 µM (inactive)
same,GI50,HCT-15,2.47 µM
same,GI50,HT-29,3.58 µM (inactive)
same,GI50,SR,2.7 µM (inactive)
same,GI50,A498,7.69 µM (inactive)
same,GI50,ACHN,3.82 µM (inactive)
same,GI50,HCT-116,3.19 µM (inactive)
same,GI50,LOX IMVI,2.3 µM (inactive)
same,GI50,OVCAR-4,2.86 µM (inactive)
same,GI50,PC-3,7.24 µM (inactive)
same,GI50,SW-620,2.72 µM (inactive)
same,GI50,EKVX,5.4 µM (inactive)
same,GI50,A549,7.28 µM (inactive)
same,GI50,NCI-H23,2.92 µM (inactive)
same,GI50,BT-549,3.59 µM (inactive)
same,GI50,K562,3.39 µM (inactive)
same,GI50,SK-MEL-28,9.77 µM (inactive)
same,GI50,M14,3.41 µM (inactive)
same,GI50,Hs-578T,5.9 µM (inactive)
same,GI50,SF-539,3.44 µM (inactive)
same,GI50,DU-145,6.01 µM (inactive)
same,GI50,MDA-MB-435,3.55 µM (inactive)
same,GI50,MDA-MB-231,2.65 µM (inactive)
same,GI50,MDA-N,3.34 µM (inactive)
same,GI50,NCI-H226,4.58 µM (inactive)
same,GI50,COLO 205,4.22 µM (inactive)
same,GI50,HOP-92,2.38 µM (inactive)
same,GI50,RXF 393,2.64 µM (inactive)
same,GI50,786-0,2.76 µM (inactive)
same,GI50,NCI-H522,2.41 µM (inactive)
same,GI50,OVCAR-3,3.21 µM (inactive)
same,GI50,SK-MEL-2,8.69 µM (inactive)
same,GI50,SNB-75,1.85 µM (inactive)
same,GI50,NCI-H460,3.21 µM (inactive)
same,GI50,T47D,3.44 µM (inactive)
same,GI50,CCRF-CEM,2.64 µM (inactive)
same,GI50,Malme-3M,8.38 µM (inactive)
same,GI50,UO-31,3.49 µM (inactive)
same,GI50,MCF7,4.02 µM (inactive)
same,GI50,TK-10,10.5 µM (inactive)
same,GI50,U-251,3.37 µM (inactive)
same,GI50,SK-OV-3,6.68 µM (inactive)
same,GI50,OVCAR-8,4.38 µM (inactive)
same,GI50,HOP-62,4.42 µM (inactive)
same,GI50,SK-MEL-5,5.14 µM (inactive)
same,GI50,MOLT-4,3.11 µM (inactive)
same,GI50,SF-295,10 µM (inactive)
same,GI50,RPMI-8226,5.98 µM (inactive)
same,GI50,CAKI-1,2.39 µM (inactive)
same,GI50,HCC 2998,5.51 µM (inactive)
same,GI50,SF-268,5.46 µM (inactive)
same,GI50,NCI/ADR-RES,3.86 µM (inactive)
same,GI50,UACC-62,3.53 µM (inactive)
same,GI50,SNB-19,3.4 µM (inactive)
